Test results taken from ChEMBL document CHEMBL1926617, “Antifungal activities of novel non-azole molecules against S. cerevisiae and C. albicans” (Eur J Med Chem, 2012).
Values after ≈ are worked out from the molar mass of the structure shown. Active and inactive are the calls of the source. The calls are words filed in the database; no cut-off is given here.

Legend:
[1] = system: Saccharomyces cerevisiae; test: Antifungal activity against Saccharomyces cerevisiae ATCC 24657 assessed as growth inhibition after 24 to 48 hrs by agar plate bioassay; type: functional
[2] = system: Candida albicans; test: Antifungal activity against Candida albicans assessed as morphogenetic transformation after 3 hrs by phase-contrast microscopy; type: functional
[3] = system: Saccharomyces cerevisiae; test: Antifungal activity against Saccharomyces cerevisiae ATCC 24657 assessed as growth inhibition at 31.2 uM after 24 to 48 hrs by agar plate bioassay; type: functional, organism-based
[4] = system: Saccharomyces cerevisiae; test: Antifungal activity against Saccharomyces cerevisiae ATCC 24657 assessed as growth inhibition at 31.2 uM after 24 to 48 hrs by spectrophotometric bioassay; type: functional, organism-based
[5] = system: Saccharomyces cerevisiae; test: Fungistatic activity against Saccharomyces cerevisiae ATCC 24657 assessed as cell proliferation compound after 24 to 48 hrs by spectrophotometric bioassay; type: functional, organism-based
[6] = system: Saccharomyces cerevisiae; test: Fungistatic activity against Saccharomyces cerevisiae ATCC 24657 assessed as cell proliferation compound after 24 to 48 hrs by agar plate bioassay; type: functional, organism-based
[7] = system: Saccharomyces cerevisiae; test: Antifungal activity against Saccharomyces cerevisiae ATCC 24657 assessed as growth inhibition at 90.7 uM after 24 hrs by agar plate bioassay; type: functional, organism-based
[8] = system: Saccharomyces cerevisiae; test: Antifungal activity against Saccharomyces cerevisiae ATCC 24657 assessed as growth inhibition at 90.7 uM after 24 hrs by spectrophotometric bioassay; type: functional, organism-based
[9] = system: Saccharomyces cerevisiae; test: Antifungal activity against Saccharomyces cerevisiae ATCC 24657 assessed as growth at 90.7 uM after 48 hrs by agar plate bioassay relative to control; type: functional
[10] = system: Saccharomyces cerevisiae; test: Antifungal activity against Saccharomyces cerevisiae ATCC 24657 assessed as growth at 90.7 uM after 48 hrs by spectrophotometric bioassay relative to control; type: functional
[11] = system: Saccharomyces cerevisiae; test: Fungistatic activity against Saccharomyces cerevisiae ATCC 24657 assessed as cell proliferation at 90.7 uM after 24 hrs by spectrophotometric bioassay; type: functional, organism-based
[12] = system: Saccharomyces cerevisiae; test: Fungistatic activity against Saccharomyces cerevisiae ATCC 24657 assessed as cell proliferation at 90.7 uM after 24 hrs by agar plate bioassay relative to control; type: functional; details: ATCC 24657, 24 h
[13] = system: Saccharomyces cerevisiae; test: Fungistatic activity against Saccharomyces cerevisiae ATCC 24657 assessed as cell growth at 90.7 uM after 48 hrs by spectrophotometric bioassay; type: functional, organism-based
[14] = system: Saccharomyces cerevisiae; test: Antifungal activity against Saccharomyces cerevisiae ATCC 24657 assessed as growth inhibition after 24 to 48 hrs by spectrophotometric bioassay; type: functional
[15] = system: Candida albicans; test: Antifungal activity against Candida albicans ATCC 32032 assessed as growth inhibition after 24 to 48 hrs by agar plate bioassay; type: functional
[16] = system: Saccharomyces cerevisiae; test: Fungistatic activity against Saccharomyces cerevisiae ATCC 24657 assessed as cell proliferation at 100 uM after 24 hrs by spectrophotometric bioassay; type: functional, organism-based
[17] = system: Saccharomyces cerevisiae; test: Fungistatic activity against Saccharomyces cerevisiae ATCC 24657 assessed as cell proliferation at 100 uM after 24 hrs by agar plate bioassay relative to control; type: functional; details: ATCC 24657, 24 h
[18] = system: Saccharomyces cerevisiae; test: Fungistatic activity against Saccharomyces cerevisiae ATCC 24657 assessed as cell growth at 100 uM after 48 hrs by spectrophotometric bioassay; type: functional, organism-based
[19] = target: T1, Cytochrome P450 1A2 (Homo sapiens, UniProt P05177); test: Inhibition of human recombinant CYP1A2; type: ADME
T1 sequence (P05177 whole entry): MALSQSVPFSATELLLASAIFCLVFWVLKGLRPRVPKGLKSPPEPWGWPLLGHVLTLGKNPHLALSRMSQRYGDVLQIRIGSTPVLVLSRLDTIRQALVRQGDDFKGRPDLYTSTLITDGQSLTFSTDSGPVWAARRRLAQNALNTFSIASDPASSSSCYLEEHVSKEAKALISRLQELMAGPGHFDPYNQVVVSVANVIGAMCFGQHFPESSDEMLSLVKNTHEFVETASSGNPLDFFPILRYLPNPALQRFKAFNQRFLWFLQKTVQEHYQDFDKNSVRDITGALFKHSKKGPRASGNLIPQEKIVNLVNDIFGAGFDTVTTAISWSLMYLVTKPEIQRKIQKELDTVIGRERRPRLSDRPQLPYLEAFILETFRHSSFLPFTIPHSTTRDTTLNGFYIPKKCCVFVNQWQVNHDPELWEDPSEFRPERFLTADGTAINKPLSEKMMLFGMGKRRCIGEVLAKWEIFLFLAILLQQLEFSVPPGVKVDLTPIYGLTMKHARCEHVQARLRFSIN

[20] = target: Cytochrome P450 2C9 (Homo sapiens, UniProt P11712); test: Inhibition of human recombinant CYP2C9; type: ADME
Sequence of Cytochrome P450 2C9 (P11712 whole entry): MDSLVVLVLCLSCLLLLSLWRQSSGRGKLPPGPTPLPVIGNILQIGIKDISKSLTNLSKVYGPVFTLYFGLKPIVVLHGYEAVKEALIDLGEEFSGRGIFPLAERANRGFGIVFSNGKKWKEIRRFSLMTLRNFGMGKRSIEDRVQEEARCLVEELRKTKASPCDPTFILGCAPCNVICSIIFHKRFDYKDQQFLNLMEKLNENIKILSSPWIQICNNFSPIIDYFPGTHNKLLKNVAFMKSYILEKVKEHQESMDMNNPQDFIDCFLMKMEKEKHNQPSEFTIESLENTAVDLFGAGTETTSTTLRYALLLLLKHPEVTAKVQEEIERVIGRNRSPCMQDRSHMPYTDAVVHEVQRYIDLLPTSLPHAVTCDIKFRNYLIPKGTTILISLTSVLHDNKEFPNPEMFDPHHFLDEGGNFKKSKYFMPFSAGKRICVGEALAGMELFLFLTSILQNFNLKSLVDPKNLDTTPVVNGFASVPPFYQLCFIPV

[21] = target: Cytochrome P450 2C19 (Homo sapiens, UniProt P33261); test: Inhibition of human recombinant CYP2C19; type: ADME
Sequence of Cytochrome P450 2C19 (P33261 whole entry): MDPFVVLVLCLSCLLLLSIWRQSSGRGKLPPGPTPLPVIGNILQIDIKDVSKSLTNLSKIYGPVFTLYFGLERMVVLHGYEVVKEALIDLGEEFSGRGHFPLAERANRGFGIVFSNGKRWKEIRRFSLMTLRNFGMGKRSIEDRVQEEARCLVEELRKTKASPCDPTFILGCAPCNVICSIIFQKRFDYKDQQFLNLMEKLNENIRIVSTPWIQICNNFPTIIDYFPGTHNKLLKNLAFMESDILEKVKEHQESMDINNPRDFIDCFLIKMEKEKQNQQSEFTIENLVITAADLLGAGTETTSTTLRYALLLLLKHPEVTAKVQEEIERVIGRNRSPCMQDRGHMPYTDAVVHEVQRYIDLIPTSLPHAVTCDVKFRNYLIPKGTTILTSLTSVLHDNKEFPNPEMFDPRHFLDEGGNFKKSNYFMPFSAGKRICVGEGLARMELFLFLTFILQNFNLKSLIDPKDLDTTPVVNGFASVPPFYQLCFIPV

[22] = target: Cytochrome P450 2D6 (Homo sapiens, UniProt P10635); test: Inhibition of human recombinant CYP2D6; type: ADME
Sequence of Cytochrome P450 2D6 (P10635 whole entry): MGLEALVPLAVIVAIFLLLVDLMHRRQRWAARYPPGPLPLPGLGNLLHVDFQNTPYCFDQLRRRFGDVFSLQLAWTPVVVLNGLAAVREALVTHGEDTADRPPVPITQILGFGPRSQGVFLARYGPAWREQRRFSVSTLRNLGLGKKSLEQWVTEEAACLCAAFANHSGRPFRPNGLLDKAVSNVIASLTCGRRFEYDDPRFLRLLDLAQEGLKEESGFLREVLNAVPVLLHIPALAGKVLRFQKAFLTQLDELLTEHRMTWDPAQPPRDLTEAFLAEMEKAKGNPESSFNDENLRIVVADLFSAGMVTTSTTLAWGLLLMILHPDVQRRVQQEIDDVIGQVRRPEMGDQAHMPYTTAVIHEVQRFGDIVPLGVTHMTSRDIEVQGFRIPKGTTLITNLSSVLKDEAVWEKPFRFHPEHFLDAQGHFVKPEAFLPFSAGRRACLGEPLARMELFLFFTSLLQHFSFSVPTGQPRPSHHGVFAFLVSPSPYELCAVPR

[23] = target: Cytochrome P450 3A4 (Homo sapiens, UniProt P08684); test: Inhibition of human recombinant CYP3A4; type: ADME
Sequence of Cytochrome P450 3A4 (P08684 whole entry): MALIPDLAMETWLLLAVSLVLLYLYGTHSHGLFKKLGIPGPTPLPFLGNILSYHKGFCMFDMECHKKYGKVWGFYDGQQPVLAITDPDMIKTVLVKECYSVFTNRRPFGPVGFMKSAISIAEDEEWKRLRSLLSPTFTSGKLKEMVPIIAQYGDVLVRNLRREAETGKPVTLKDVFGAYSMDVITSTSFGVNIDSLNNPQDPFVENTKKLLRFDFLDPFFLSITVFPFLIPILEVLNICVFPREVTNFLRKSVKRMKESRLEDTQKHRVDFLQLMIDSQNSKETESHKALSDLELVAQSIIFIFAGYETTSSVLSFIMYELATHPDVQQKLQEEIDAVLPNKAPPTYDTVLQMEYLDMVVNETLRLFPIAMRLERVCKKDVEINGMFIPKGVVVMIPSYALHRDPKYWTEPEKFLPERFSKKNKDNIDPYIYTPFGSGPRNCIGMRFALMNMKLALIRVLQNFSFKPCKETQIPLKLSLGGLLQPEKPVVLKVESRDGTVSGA

Compound: N#CC(c1ccc2c(c1)OCO2)N(Cc1ccccc1)C(=O)c1sc2ccccc2c1Cl (stereo unspecified)
- MIC [1]: > 200 µM

Compound: OC(Cn1cncn1)(Cn1cncn1)c1ccc(F)cc1F [FLUCONAZOLE]
- MIC [2]: 104 µM (≈ 32 µg/mL)

Compound: COC(=O)c1cscc1NC(=O)CC(CC(=O)O)c1ccccc1 (stereo unspecified)
- MIC [1]: > 200 µM

Compound: O=C(CC(Sc1ccc2ccccc2c1)c1ccsc1)c1ccc(Cl)cc1 (stereo unspecified)
- MIC [1]: > 200 µM

Compound: CC(=O)N1CCN(c2ccc(OCC3COC(Cn4ccnc4)(c4ccc(Cl)cc4Cl)O3)cc2)CC1 (stereo unspecified)
- growth inhibition (GI) [3]: Active
- growth inhibition (GI) [4]: Active
- Activity [5]: inactive
- Activity [6]: inactive

Compound: CCC(C)n1ncn(-c2ccc(N3CCN(c4ccc(OCC5COC(Cn6cncn6)(c6ccc(Cl)cc6Cl)O5)cc4)CC3)cc2)c1=O (stereo unspecified) [ITRACONAZOLE]
- growth inhibition (GI) [7]: inactive
- growth inhibition (GI) [8]: inactive
- fold change (FC) [9]: 1.5
- fold change (FC) [10]: 1.5
- Activity [11]: Active
- inhibition at 90.7 µM [12]: 95%
- Activity [13]: inactive
- MIC [2]: > 90.7 µM

Compound: CCCN(CCC)S(=O)(=O)c1ccc(C(=O)N/N=C/c2ccc(N(C)CCC#N)cc2)cc1
- MIC [1]: > 200 µM

Compound: CCC(C)(C)c1ccc(CC(C)CN2C[C@@H](C)O[C@@H](C)C2)cc1 (stereo partly specified) [AMOROLFINE]
- MIC [2]: 202 µM (≈ 64 µg/mL)

Compound: CN(CCC#N)c1ccc(/C=C2\CC/C(=C\c3ccc(N(C)CCC#N)cc3)C2=O)cc1
- MIC [1]: > 200 µM

Compound: C=CCOc1ccc(/C=C2\CCc3cc(OC)ccc3C2=O)cc1
- MIC [1]: > 200 µM

Compound: FC(F)(F)Oc1ccc(C2c3ccsc3CCN2Cc2ccc3c(c2)CCO3)cc1 (stereo unspecified)
- MIC50 [1]: 120 µM (≈ 51.8 µg/mL)

Compound: C=CCNc1ncnc2sc3c(c12)CCCC3
- growth inhibition (GI) [1]: inactive
- MIC [14]: 100 µM (≈ 24.5 µg/mL)
- MIC50 [14]: 9.98 µM (≈ 2.45 µg/mL)
- Activity [5]: inactive
- Activity [6]: inactive

Compound: N#CC(C#N)=CNc1ccc2oc3ncccc3c(=O)c2c1
- MIC [1]: > 200 µM

Compound: O=C(/C=C\c1ccco1)NCC(=O)N1CCC(c2nccn2CCc2ccsc2)CC1
- MIC [1]: > 200 µM

Compound: Cc1ccc(C(=O)N(C)Cc2ccco2)c(C2CCN(C(=O)/C=C/c3ccc4c(c3)OCO4)CC2)n1
- MIC [1]: > 200 µM

Compound: O=C(c1ccncc1)c1ccc(Cl)cc1
- MIC [1]: > 200 µM
- MIC50 [1]: 100 µM (≈ 21.8 µg/mL)

Compound: Cc1ccc(C(=O)CC(Sc2ccc3ccccc3c2)c2ccsc2)cc1 (stereo unspecified)
- MIC [1]: > 150 µM

Compound: Cc1nc(C)c(C(=O)N2CCC(c3nc(C(=O)N(CCC#N)Cc4ccco4)cs3)CC2)s1
- MIC [1]: > 200 µM

Compound: COc1cc(C(=O)N(CCC#N)C2CC(C)CC(C)(C)C2)cc(OC)c1OC (stereo unspecified)
- MIC [1]: > 200 µM

Compound: CN(CCC#N)c1ccc(/C=N/NC(=O)N/N=C/c2ccc(N(C)CCC#N)cc2)cc1
- MIC [1]: > 200 µM

Compound: Cc1ccc(C(=O)N(C)Cc2ccco2)c(C2CCN(C(=O)/C=C/c3cccs3)CC2)n1
- MIC [1]: > 200 µM

Compound: CC1=C(C#N)C(c2sc3ccccc3c2C)C2=C(CCCC2=O)N1 (stereo unspecified)
- MIC [1]: > 250 µM
- MIC50 [1]: 118 µM (≈ 39.5 µg/mL)

Compound: COc1ccc(CC2c3cc(OC)c(OC)cc3CCN2C=C(C#N)C#N)cc1OC (stereo unspecified)
- MIC [1]: > 200 µM

Compound: CCOc1ccc(/N=C/c2ccc(N(C)CCC#N)cc2)cc1
- MIC [1]: > 200 µM

Compound: COc1ccc(-c2sc(/N=C/c3ccc(N(C)CCC#N)cc3)c(C#N)c2C)cc1OC
- MIC [1]: 118 µM (≈ 52.5 µg/mL)
- MIC50 [1]: 2.7 µM (≈ 1.2 µg/mL)
- MIC [15]: 12 µM (≈ 5.33 µg/mL)
- Activity [16]: Active
- inhibition at 100 µM [17]: 95%
- Activity [18]: inactive
- IC50 [19]: 11.9 µM
- IC50 [20]: 1.2 µM
- IC50 [21]: 1.1 µM
- IC50 [22]: 23.3 µM
- IC50 [23]: 33.2 µM

Compound: Cc1ccc(Cc2cc(C)ncc2C)c(C)c1
- MIC [1]: 100 µM (≈ 22.5 µg/mL)
- MIC50 [1]: 14 µM (≈ 3.15 µg/mL)

Compound: Cc1n[nH]c(=O)c(N)c1-c1cc(-c2ccsc2)[nH]n1
- MIC [1]: > 200 µM

Compound: Clc1ccc(COC(Cn2ccnc2)c2ccc(Cl)cc2Cl)c(Cl)c1 (stereo unspecified) [MICONAZOLE]
- MIC [2]: 76.9 µM (≈ 32 µg/mL)

Compound: CSc1sc(C(=O)N2CCC3(CCN(C(=O)CNC(=O)c4ccco4)CC3)C2)c2c1C(=O)CCC2
- MIC [1]: > 200 µM
